Measured values as given in US20200179428A1, “CYCLIC PHOSPHATE SUBSTITUTED NUCLEOSIDE DERIVATIVES AND METHODS OF USE THEREOF FOR THE TREATMENT OF VIRAL DISEASES” (priority 2016, published 2020).

What was measured:
[1] = Cytotoxicity MTS assay (CellTiter 96 Aqueous One Solution) in replicon cells; type: cell-based; conditions: HCV replicon cells (1b-Con1); EDU; read-out: CC50 (EDU) Range
Protocol: (§1) To measure cell-based anti-HCV activity of the compounds of the present invention, replicon cells (1b-Con1) are seeded at 5000 cells/well in 96-well plates one day prior to treatment with a compound of the invention. Various concentrations of a test compound of the invention in DMSO are then added to the replicon cells, with the final concentration of DMSO at 0.5% and fetal bovine serum at 10% in the assay media. Cells are harvested three days post-dosing, and the replicon RNA level is determined using real-time RT-PCR (Taqman assay) with GAPDH RNA as endogenous control. EC50 values are calculated from experiments with 10 serial twofold dilutions of the inhibitor in triplicate. To measure cytotoxicity in replicon cells of an inhibitor, an MTS assay is performed according to the manufacturer's protocol for CellTiter 96 Aqueous One Solution Cell Proliferation Assay (Promega, Cat # G3580) three days post dosing on cells treated identically as in replicon activity assays. […] Cytotoxicity in other types of cells may be measured using the same MTS protocol.

replicon cells (1b-Con1) = assay: Replicon activity assay (replicon RNA level by real-time RT-PCR, Taqman); type: cell-based; conditions: Hepatitis C virus, HCV replicon genotype 1b; read-out: EC50 (1b) Range
Protocol: as §1

Row | SMILES | CC50 at 3 days [1] [µM] | EC50 (replicon cells (1b-Con1)) [µM]
1 | CC(C)OC(=O)C(C)CCCO[P@@]1(=O)OC[C@H]2O[C@@H](n3ccc(=O)[nH]c3=O)[C@](C)(N)[C@@H]2O1 (stereo partly shown) [Compound 34A] | > 50 | > 10
2 | CC(C)OC(=O)C(C)(C)CO[P@]1(=O)OC[C@H]2O[C@@H](n3ccc(=O)[nH]c3=O)[C@](C)(N)[C@@H]2O1 [Compound 15B] | > 50 | > 10
3 | CC(C)OC(=O)C(C)CCOP1(=O)OC[C@H]2O[C@@H](n3ccc(=O)[nH]c3=O)[C@](C)(N)[C@@H]2O1 (single isomer, unassigned) [Compound 10A1] | > 50 | > 10
4 | C#C[C@]1(C)[C@@H]2O[P@](=O)(OC[C@@H](F)CC(=O)OC(C)C)OC[C@H]2O[C@H]1n1ccc(=O)[nH]c1=O [Compound 64B] | > 50 | 0.25 to 1
5 | C#C[C@]1(C)[C@@H]2O[P@@](=O)(OC[C@H](NC(=O)OC)C(=O)OC(C)C)OC[C@H]2O[C@H]1n1ccc(=O)[nH]c1=O [Compound 40A] | > 50 | > 10
6 | C#C[C@]1(C)[C@@H]2O[P@@](=O)(OCCC(C)(C)C(=O)OC(C)C)OC[C@H]2O[C@H]1n1ccc(=O)[nH]c1=O [Compound 20A] | > 50 | > 10
7 | C#C[C@]1(C)[C@@H]2O[P@@](=O)(OCCC(CO)C(=O)OC(C)C)OC[C@H]2O[C@H]1n1ccc(=O)[nH]c1=O (stereo partly shown) [Compound 44A] | > 50 | > 10
8 | C#C[C@@]1(O)[C@@H]2OP(=O)(OCC[C@@H](OC)C(=O)OC(C)C)OC[C@H]2O[C@H]1n1ccc(=O)[nH]c1=O (stereo partly shown) [Compound 76] | > 50 | ≤ 0.25
9 | CCC(CCO[P@]1(=O)OC[C@H]2O[C@@H](n3ccc(=O)[nH]c3=O)[C@](C)(N)[C@@H]2O1)C(=O)OC(C)C (stereo partly shown) [Compound 23B] | > 50 | > 10
10 | C#C[C@]1(C)[C@@H]2O[P@](=O)(OC[C@H](NC(=O)OC)C(=O)OC(C)C)OC[C@H]2O[C@H]1n1ccc(=O)[nH]c1=O [Compound 40B] | > 50 | > 10
11 | CC(C)OC(=O)C(C)CCOP1(=O)OC[C@H]2O[C@@H](n3ccc(=O)[nH]c3=O)[C@](C)(Cl)[C@@H]2O1 (single isomer, unassigned) [Compound 39B1] | > 50 | ≤ 0.25
12 | C#C[C@]1(C)[C@@H]2O[P@@](=O)(OC[C@H](CC(=O)OC(C)C)OC)OC[C@H]2O[C@H]1n1ccc(=O)[nH]c1=O [Compound 60A] | > 50 | > 10
13 | CC(C)OC(=O)C(CCO[P@]1(=O)OC[C@H]2O[C@@H](n3cnc4c(N)ncnc43)[C@](C)(Cl)[C@@H]2O1)C(=O)OC(C)C [Compound 70B] | > 50 | 1 to 10
14 | C[C@@]1(N)[C@@H]2O[P@@](=O)(OCCC3CCOC3=O)OC[C@H]2O[C@H]1n1ccc(=O)[nH]c1=O (stereo partly shown) [Compound 46A] | > 50 | > 10
15 | CC(C)OC(=O)C1(CCO[P@]2(=O)OC[C@H]3O[C@@H](n4ccc(=O)[nH]c4=O)[C@](C)(N)[C@@H]3O2)CC1 [Compound 27B] | > 50 | > 10
16 | C#C[C@@]1(O)[C@@H]2O[P@@](=O)(OCCC(C(=O)OC(C)C)C(=O)OC(C)C)OC[C@H]2O[C@H]1n1ccc(=O)[nH]c1=O [Compound 59A] | > 50 | 0.25 to 1
17 | C#C[C@]1(C)[C@@H]2O[P@@](=O)(OC[C@@H](F)CC(=O)OC(C)C)OC[C@H]2O[C@H]1n1ccc(=O)[nH]c1=O [Compound 64A] | > 50 | 0.25 to 1
18 | C#C[C@]1(C)[C@@H]2O[P@@](=O)(OCC[C@H](OC(C)=O)C(=O)OC(C)C)OC[C@H]2O[C@H]1n1ccc(=O)[nH]c1=O [Compound 51A] | > 50 | 1 to 10
19 | CC(CCOP1(=O)OC[C@H]2O[C@@H](n3ccc(=O)[nH]c3=O)[C@](C)(N)[C@@H]2O1)C(=O)OC1CCCC1 (stereo partly shown) [Compound 14A] | > 50 | > 10
20 | C#C[C@]1(C)[C@@H]2O[P@](=O)(OC[C@H](CC(=O)OC(C)C)OC)OC[C@H]2O[C@H]1n1ccc(=O)[nH]c1=O [Compound 60B] | > 50 | > 10
21 | CO[C@H](CCO[P@]1(=O)OC[C@H]2O[C@@H](n3ccc(=O)[nH]c3=O)[C@](C)(N)[C@@H]2O1)C(=O)OC(C)C [Compound 45B] | > 50 | > 10
22 | C#C[C@]1(C)[C@@H]2O[P@@](=O)(OC[C@H](F)CC(=O)OC(C)C)OC[C@H]2O[C@H]1n1ccc(=O)[nH]c1=O [Compound 66A] | > 50 | > 10
23 | CC(=O)O[C@@H](CO[P@@]1(=O)OC[C@H]2O[C@@H](n3ccc(=O)[nH]c3=O)[C@](C)(N)[C@@H]2O1)[C@@H](OC(C)=O)C(=O)OC(C)C [Compound 54A] | > 50 | > 10
